Data reported in patent US20150306226A1, “COMPOSITION” (RATIOPHARM GMBH, priority 2012, published 2015).
Values after ≈ are worked out from the molar mass of the structure shown.

Assay: solubility in aqueous buffer
Type: physicochemical
Conditions: aqueous buffer pH 7.4, room temperature
Experimental: Enantiomerically pure compound (I) has low solubility in aqueous solution. In aqueous buffer pH 7.4 the solubility measured at room temperature is about 0.01 mg/ml. Poor solubility typically leads to poor oral bioavailability, fed/fasted variations in bioavailability, cumbersome and inconvenient dosage forms, and may necessitate the use of harsh solubilising agents that are associated with adverse side effects.

CCOc1cc(C(CS(C)(=O)=O)N2C(=O)c3cccc(NC(C)=O)c3C2=O)ccc1OC (stereo not shown) [compound (I), N-[2-[1-(3-ethoxy-4-methoxyphenyl)-2-(methylsulfonyl)ethyl]-1,3-dioxo-2,3-dihydro-1H-isoindol-4-yl]acetamide]
solubility: ~10 µg/mL (≈ 21.7 µM)
